The data set is described as follows: Stability of natamycin solutions in propylene glycol and aqueous sodium lactate (residual natamycin by HPLC). Conditions: 4-7° C., pH 7.8, natamycin 1% (w/w). The class given is physicochemical. The method, then:
Natamycin concentrations were determined using […] as follows. • HPLC system: Waters iClass • Column: Waters Symmetry C18, 4.6×150 mm, 3.5 μm, Part No. WAT200632, Column no. 1483, Lot no. 0198313011 • Column temperature: 25° C. • Eluent A: 50 mM ammonium acetate buffer pH 5.8 (with acetic acid) • Eluent B: Acetonitrile • Wash: 60% acetonitrile/40% water (v/v) • Injection volume: 10 μl • Injector temperature: 10° C. in darkness • Flow: 1 mL/min
The reverse phase HPLC uses a UV detector to determine the residual concentration of natamycin at 303 nm. A set of standard dilutions containing subsequently increasing concentrations of natamycin in methanol was made and from these a calibration curve was obtained. The concentration of natamycin should not exceed a concentration of 88 mg/L. Generally, the dilutions contained 20 mg of sample and […] of methanol.
A […] solution of sodium lactate in water (3 g) was mixed with propylene glycol (16 g) and natamycin (0.2 g) and heated until a final temperature of 105° C. to give a solution with a natamycin concentration of 1% (w/w). […] Samples of the mixtures were analyzed over time by HPLC for residual natamycin concentration. The shelf life test of the mixtures was done by storage at low temperatures (4-7° C.).

Experimental findings from patent US20210227837A1, “NATAMYCIN FOR THE PRESERVATION OF A BAKED PRODUCT” (DSM IP ASSETS B.V., priority 2018, published 2021) are described below.

As for `C[C@@H]1C/C=C/C=C/C=C/C=C/[C@H](O[C@@H]2O[C@H](C)[C@@H](O)[C@H](N)[C@@H]2O)C[C@@H]2O[C@](O)(C[C@@H](O)C[C@H]3O[C@@H]3/C=C/C(=O)O1)C[C@H](O)[C@H]2C(=O)O` [natamycin], the “Residual natamycin (%)” value came out at 89% (day 0); 88% (day 1); 84% (day 3); 81% (day 6); 84% (day 10); 71% (day 27). Besides, the “Residual natamycin (%)” value by setting is: (day 38) 63%; (day 45) 62%; (day 65) 45%.
